The values below come from patent US20250241905A1, “3-BETA-HSD1 INHIBITORS AND COMPOSITIONS AND USES THEREOF” (The Cleveland Clinic Foundation, priority 2022, published 2025).

SMILES strings stand for the structures.

human 3β-HSD1, sequence (P14060 2-373 limits assumed): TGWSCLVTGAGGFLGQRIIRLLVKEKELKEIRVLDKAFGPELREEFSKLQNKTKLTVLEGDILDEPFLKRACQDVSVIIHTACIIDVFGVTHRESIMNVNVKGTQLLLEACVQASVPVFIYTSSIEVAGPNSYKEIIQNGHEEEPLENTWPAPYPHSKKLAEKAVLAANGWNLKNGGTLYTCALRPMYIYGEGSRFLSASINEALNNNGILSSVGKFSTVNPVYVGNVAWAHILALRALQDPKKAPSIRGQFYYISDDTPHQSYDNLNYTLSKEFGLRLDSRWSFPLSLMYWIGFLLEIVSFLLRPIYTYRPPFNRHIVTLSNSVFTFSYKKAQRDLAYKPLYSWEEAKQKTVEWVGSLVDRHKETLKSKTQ

The assay addresses human 3β-HSD1. Put plainly: 3β-HSD1 inhibition, colorimetric NADH detection assay. As to conditions: purified recombinant human 3β-HSD1, 50 μM DHEA, 2 mM NAD+, 1 hour, room temperature, duplicate 10-point CRC; read-out: IC50 (nM), in vitro NADH inhibition. Type of assay: biochemical. From the text:
Enzymatic turnover was quantified through NADH generation by purified, recombinant human 3β-HSD1 (expressed in Sf9 insect cells) in the presence of steroidal substrate trans-Dehydroandrosterone (DHEA) that was placed slightly above the experimentally determined Km and saturating amounts of co-factor Nicotinamide adenine dinucleotide (NAD^+). The sequence of recombinant human 3β-HSD1 used is […] […] […] […] […] […] […] (SEQ ID NO: 3). DHEA and NAD+ were enzymatically converted to androstenedione and NADH, respectively. Final NADH concentrations were spectroscopically quantified using a commercially available Amplite™ Colorimetric NADH Assay Kit which utilizes an NADH probe with an absorbance wavelength of 460 nm. Enzymatic assays with a final volume of 25 μL were ran in a 384-well, Greiner Bio-One UV-STAR® assay plate in 50 mM TRIS pH 8.0 assay buffer. […] Compound stocks at 10 mM in DMSO were serial diluted 5-fold in DMSO to generate an ECHO® compatible source plate. 125 nL of DMSO, Trilostane, or serial diluted compounds were then acoustically transferred into an empty UV-STAR® assay plate to give a final assay concentration of 0.5% v/v DMSO. The stamp volume and dilution scheme can be adjusted to accommodate compound potency. The assay can tolerate up to a 5% v/v DMSO final assay concentration. 15 μL of 1 μg purified 3β-HSD1 and 50 μM DHEA (final assay volume concentration) was dispensed per well into the stamped plate, centrifuged for 1 minute at 1000 RPM, covered, and allowed to incubate for 15 minutes at room temp. Enzymatic reactions were initiated upon the addition of 10 μL of NAD^+ diluted in assay buffer to give a final assay volume concentration of 2 mM. The assay plate was centrifuged for 1 minute at 1000 RPM, covered, and incubated at room temperature for 1 hour. 25 μL Amplite™ Colorimetric NADH Assay Kit detection solution (prepared as recommended) was added to all reaction wells, the plate centrifuged for 1 minute at 1000 RPM, covered, and incubated for 15 minutes. Final absorbance values (λ=460 nm) are spectroscopically determined on BioTek® Cytation5 or Synergy4 plate readers. […] From the background subtracted values, the non-inhibited enzyme signal (DMSO treated) was averaged from 32 control reactions. The percent inhibition value was calculated by: % inhibition=(1−((background subtracted inhibited reaction)/(background subtracted non-inhibited average)))*100. The resulting percent inhibition was then plotted in duplicate against corresponding concentration values. The resulting CRCs were fit with a four parameter, variable slope log (inhibitor) vs response equation where Y=bottomvalue+ (topvalue−bottomvalue)/(1+10^((log IC50−X)*Hillslope)) to determine the IC50 values for tested compounds.
For the compound `N#Cc1cc(-c2ccc3c(n2)CCCC3=O)ccc1O` [Compound 3, 2-hydroxy-5-(5-oxo-5,6,7,8-tetrahydroquinolin-2-yl)benzonitrile], the IC50 was 651 nM.

Regarding `CC1(C)CCc2nc(-c3ccc(O)c(C#N)c3)ccc2C1=O` [Compound 4, 5-(6,6-dimethyl-5-oxo-5,6,7,8-tetrahydroquinolin-2-yl)-2-hydroxybenzonitrile], the IC50 is 1860 nM.

As to `CC1(C)CCc2nc(-c3ccc(O)c(F)c3)ccc2C1=O` [Compound 6, 2-(3-fluoro-4-hydroxyphenyl)-6,6-dimethyl-7,8-dihydroquinolin-5(6H)-one], the IC50 was 51 nM.

As for `Oc1c(F)cc(-c2ccc3c(n2)CCCC3O)cc1F` (stereo not shown) [Compound 13], the IC50 is 748 nM.

Regarding `CC1(O)CCCc2nc(-c3cc(F)c(O)c(F)c3)ccc21` (stereo not shown) [Compound 14], the IC50 amounted to 339 nM.

On to `NC1CCCc2nc(-c3cc(F)c(O)c(F)c3)ccc21` (stereo not shown) [Compound 15], for which the IC50 worked out at 3440 nM.

For the compound `CC1(C)CCc2nc(-c3cc(F)c(O)c(F)c3)ccc2C1(O)Cc1ccccc1` (stereo not shown) [Compound 17], the IC50 stood at 227 nM.

Consider `CC1(C)CCc2nc(-c3ccc(O)c(F)c3)ccc2C1(C)O` (stereo not shown) [Compound 18], for which the concentration for half-maximal inhibition (IC50) came out at 504 nM.

On to `CC1(C)CCc2nc(-c3cc(F)c(O)c(F)c3)ccc2C1(O)c1ccccc1` (stereo not shown) [Compound 19], for which the IC50 was determined as 314 nM.

As for `O=C1CCCc2nc(-c3cnc(O)c(F)c3)ccc21` [Compound 21], the IC50 worked out at 6100 nM.

For `O=C1CCc2nc(-c3cc(F)c(O)c(F)c3)ccc21` [Compound 22], the half-maximal inhibitory concentration (IC50) was found to be 297 nM.

Regarding `O=C1CCCc2nc(-c3cc(F)c(O)c(Cl)c3)ccc21` [Compound 23], the IC50 came to 49 nM.

As for `O=C1CCCc2nc(-c3cc(F)c(O)cc3F)ccc21` [Compound 24], the IC50 turned out to be 83 nM.

For `O=C1CCNc2nc(-c3cc(F)c(O)c(F)c3)ccc21` [Compound 26], the IC50 stood at 218 nM.

`Cc1c(-c2ccc3c(n2)CCCC3=O)cc(F)c(O)c1F` [Compound 27]: the 50% inhibitory concentration (IC50) was 367 nM.

As to `O=C1CCCc2nc(-c3c(F)c(F)c(O)c(F)c3F)ccc21` [Compound 28], the 50% inhibitory concentration (IC50) worked out at 3000 nM.

Consider `O=C1c2ccc(-c3cc(F)c(O)c(F)c3)nc2CCC1CC1CC1` (stereo not shown) [Compound 29], for which the IC50 amounted to 130 nM.

Regarding `O=C1c2ccc(-c3cc(F)c(O)c(F)c3)nc2CCC12CCC2` [Compound 30], the IC50 amounted to 303 nM.

On to `Cc1cc(-c2cc(F)c(O)c(F)c2)nc2c1C(=O)CCC2` [Compound 31], for which the half-inhibitory concentration (IC50) came to 991 nM.

For `O=C1CCCCc2nc(-c3cc(F)c(O)c(F)c3)ccc21` [Compound 32], the IC50 was determined as 90 nM.

Consider `CC1(C)CCCc2nc(-c3cc(F)c(O)c(F)c3)ccc2C1=O` [Compound 33], for which the IC50 is 292 nM.

As for `CC1(O)CCc2nc(-c3cc(F)c(O)c(F)c3)ccc2C1=O` (stereo not shown) [Compound 34], the half-inhibitory concentration (IC50) came to 446 nM.

`CC1(C#N)CCc2nc(-c3cc(F)c(O)c(F)c3)ccc2C1=O` (stereo not shown) [Compound 35]: the IC50 was 92 nM.

For `CC1(C(F)(F)F)CCc2nc(-c3cc(F)c(O)c(F)c3)ccc2C1=O` (stereo not shown) [Compound 36], the half-inhibitory concentration (IC50) amounted to 59 nM.

As to `O=C(O)CC1CCc2nc(-c3cc(F)c(O)c(F)c3)ccc2C1=O` (stereo not shown) [Compound 37], the IC50 is 2840 nM.

In the case of `O=C1c2ccc(-c3cc(F)c(O)c(F)c3)nc2CCC1Cc1ccccn1` (stereo not shown) [Compound 38], the IC50 came out at 272 nM.

For the compound `O=C1c2ccc(-c3cc(F)c(O)c(F)c3)nc2CCC1Cc1cccnc1` (stereo not shown) [Compound 39], the IC50 worked out at 249 nM.

Take `O=C1c2ccc(-c3cc(F)c(O)c(F)c3)nc2CCC1Cc1ccncc1` (stereo not shown) [Compound 40]: the 50% inhibitory concentration (IC50) was found to be 212 nM.

With `CC1(C)CC(=O)c2ccc(-c3cc(F)c(O)c(F)c3)nc2C1` [Compound 42], the IC50 stood at 287 nM.

In the case of `CCC1(O)CCCc2nc(-c3cc(F)c(O)c(F)c3)ccc21` (stereo not shown) [Compound 43], the half-maximal inhibitory concentration (IC50) was 365 nM.

For the compound `CCc1cc(-c2cc(F)c(O)c(F)c2)nc2c1C(=O)CCC2` [Compound 44], the IC50 is 1280 nM.

For `CC(C)c1cc(-c2cc(F)c(O)c(F)c2)nc2c1C(=O)CCC2` [Compound 45], the half-inhibitory concentration (IC50) was 8610 nM.

For the compound `CC1(F)CCc2nc(-c3cc(F)c(O)c(F)c3)ccc2C1=O` (stereo not shown) [Compound 46], the IC50 was determined as 42 nM.

For the compound `O=C1c2ccc(-c3cc(F)c(O)c(F)c3)nc2CC[C@@H]1Cc1ccccc1` [Compound 47], the IC50 amounted to 177 nM.

For `O=C1c2ccc(-c3cc(F)c(O)c(F)c3)nc2CC[C@H]1Cc1ccccc1` [Compound 48], the IC50 was 19 nM.

Regarding `CC1(C)CCc2nc(-c3ccc(O)c(Cl)c3)ccc2C1=O` [Compound 49], the concentration for half-maximal inhibition (IC50) was 26 nM.

As to `CC1(C)CCc2nc(-c3ccc(O)c(C(F)(F)F)c3)ccc2C1=O` [Compound 50], the IC50 amounted to 1500 nM.

Turning to `O=C1c2ccc(-c3cc(F)c(O)c(F)c3)nc2CCC1F` (stereo not shown) [Compound 51], the IC50 worked out at 149 nM.

For `CC1(CO)CCc2nc(-c3cc(F)c(O)c(F)c3)ccc2C1=O` (stereo not shown) [Compound 52], the IC50 was 222 nM.

`COC1CCCc2nc(-c3cc(F)c(O)c(F)c3)ccc21` (stereo not shown) [Compound 53]: the IC50 came to 204 nM.

In the case of `CC1(C)CCc2nc(-c3cc(F)c(O)c(Cl)c3)ccc2C1=O` [Compound 54], the IC50 is 107 nM.

On to `CC[C@]1(C)CCc2nc(-c3cc(F)c(O)c(F)c3)ccc2C1=O` [Compound 56], for which the half-inhibitory concentration (IC50) is 110 nM.

On to `C[C@]1(Cc2ccccc2)CCc2nc(-c3cc(F)c(O)c(F)c3)ccc2C1=O` [Compound 57], for which the half-inhibitory concentration (IC50) amounted to 78 nM.

As for `C[C@@]1(Cc2ccccc2)CCc2nc(-c3cc(F)c(O)c(F)c3)ccc2C1=O` [Compound 58], the IC50 was 55 nM.

Regarding `CN(C)CC1(C)CCc2nc(-c3cc(F)c(O)c(F)c3)ccc2C1=O` (stereo not shown) [Compound 60], the IC50 was 1170 nM.

`O=C1c2ccc(-c3cc(F)c(O)cc3F)nc2CCC12CC2` [Compound 61]: the 50% inhibitory concentration (IC50) came out at 127 nM.

For `O=C1c2ccc(-c3cc(F)c(O)c(F)c3)nc2CCC12COCOC2` [Compound 62], the half-inhibitory concentration (IC50) was determined as 541 nM.

In the case of `O=C1c2ccc(-c3cc(F)c(O)c(F)c3)nc2CCC12COC2` [Compound 63], the IC50 is 370 nM.

With `O=C1CCOc2nc(-c3cc(F)c(O)c(F)c3)ccc21` [Compound 64], the concentration for half-maximal inhibition (IC50) amounted to 433 nM.

In the case of `CC1(C)CCc2nc(-c3cnc(O)c(F)c3)ccc2C1=O` [Compound 65], the IC50 was more than 20000 nM.

Regarding `CC1(C)CCc2nc(-c3cc(F)c(O)c(F)c3)ncc2C1=O` [Compound 66], the half-inhibitory concentration (IC50) was 414 nM.

As to `CC1(C)CCc2nc(-c3cc(F)c(O)c(C#N)c3)ccc2C1=O` [Compound 67], the IC50 is 1880 nM.

Turning to `CN1CC(C)(C)C(=O)c2ccc(-c3cc(F)c(O)c(F)c3)nc21` [Compound 68], the IC50 came out at 308 nM.

As for `CC1(C)CNc2nc(-c3cc(F)c(O)c(F)c3)ccc2C1=O` [Compound 69], the IC50 worked out at 470 nM.

For `O=C1CCCc2nc(-c3cc(F)c(O)c(F)c3)cnc21` [Compound 70], the IC50 amounted to 7640 nM.

In the case of `Cc1cc(-c2ccc3c(n2)CCC(C)(C)C3=O)cc(F)c1O` [Compound 71], the IC50 was found to be 67 nM.

Regarding `CC1(C)Cc2nc(-c3cc(F)c(O)c(F)c3)ccc2C1=O` [Compound 72], the IC50 was found to be 221 nM.

For the compound `CC1(C)CCc2nc(-c3ccc(O)c(F)c3F)ccc2C1=O` [Compound 73], the concentration for half-maximal inhibition (IC50) was determined as 122 nM.

Turning to `Oc1c(F)cc(-c2ccc3c(n2)CCCC3OCC2COC2)cc1F` (stereo not shown) [Compound 74], the IC50 worked out at 441 nM.

On to `COCC1(C)CCc2nc(-c3cc(F)c(O)c(F)c3)ccc2C1=O` (stereo not shown) [Compound 75], for which the concentration for half-maximal inhibition (IC50) is 338 nM.

In the case of `CCOC1CCCc2nc(-c3cc(F)c(O)c(F)c3)ccc21` (stereo not shown) [Compound 76], the IC50 is 389 nM.

With `Oc1c(F)cc(-c2ccc3c(n2)CCCC3OC2COC2)cc1F` (stereo not shown) [Compound 77], the IC50 amounted to 1070 nM.

As for `Cc1cc(-c2ccc3c(n2)CCC(C)(C)C3=O)cc(Cl)c1O` [Compound 78], the IC50 was found to be 2170 nM.

Take `COC1(C)CCCc2nc(-c3cc(F)c(O)c(F)c3)ccc21` (stereo not shown) [Compound 79]: the IC50 is 38 nM.

Take `CC1(C)CCc2nc(-c3cc(F)c(O)c(F)c3F)ccc2C1=O` [Compound 80]: the 50% inhibitory concentration (IC50) is 152 nM.

Consider `Cc1cc(-c2ccc3c(n2)CCC(C)(C)C3=O)c(F)c(F)c1O` [Compound 81], for which the IC50 turned out to be 326 nM.

On to `CCN1CC(C)(C)C(=O)c2ccc(-c3cc(F)c(O)c(F)c3)nc21` [Compound 82], for which the half-maximal inhibitory concentration (IC50) worked out at 326 nM.

As usually defined, the IC50 is the point on the concentration scale where inhibition reaches its midpoint.
